Measured values from EPA's ToxValDB 9.5 (doi:10.2903/j.efsa.2014.3881).

Experiments:
[1] = tested on: Apis mellifera; conditions: acute, mortality
[2] = tested on: Mus musculus; conditions: chronic; duration: 18 months; body weight
[3] = tested on: Tagia sp.
[4] = tested on: Anas platyrhynchos; conditions: reproductive
[5] = tested on: Coturnix japonica; conditions: acute; oral; mortality
[6] = tested on: Daphnia magna; conditions: chronic/long-term; duration: 21 days; reproduction
[7] = tested on: Canidae; conditions: chronic; duration: 1 years; oral; Dog Other; body weight
[8] = tested on: Rattus norvegicus
[9] = tested on: Colinus virginianus; conditions: acute; oral; diet; mortality
[10] = tested on: Oncorhynchus mykiss

**Q.** With COC(=O)c1ccc(C(F)(F)F)nc1S(=O)(=O)[N-]C(=O)Nc1nc(OC)cc(OC)n1.[Na+] [Flupyrsulfuron-methyl sodium] as the molecule, how does the LD50 ([1]; dermal) read?
**A.** The LD50 was greater than 250 µg/piece.

**Q.** And the LD50 ([1]; oral, unspecified)?
**A.** The LD50 was 119 µg/piece.

**Q.** And the NOAEL [2]?
**A.** The NOAEL was 3.51 mg/kg-day.

**Q.** What about the LC50 ([3]; acute, duration: 14 days, mortality) of the same molecule?
**A.** Its LC50 is greater than 1000 mg/kg.

**Q.** What about the NOEC ([3]; chronic/long-term, duration: 8 weeks) of the same molecule?
**A.** Its NOEC is 0.065 mg/kg.

**Q.** And the NOEL [4]?
**A.** Its NOEL is 26 mg/kg-day.

**Q.** What about the LD50 [5] of the same molecule?
**A.** Its LD50 is greater than 2250 mg/kg-day.

**Q.** And the NOEC [6]?
**A.** The NOEC was 16 mg/L.

**Q.** What about the NOAEL [7] of the same molecule?
**A.** Its NOAEL is 13.6 mg/kg-day.

**Q.** And the LD50 ([8]; acute, mortality)?
**A.** The LD50 was greater than 2500 mg/kg-day.

**Q.** What about the NOAEL ([8]; developmental, development) of the same molecule?
**A.** Its NOAEL is 20 mg/kg-day.

**Q.** What about the LD50 [9] of the same molecule?
**A.** Its LD50 is greater than 1610 mg/kg-day.

**Q.** And the LC50 ([10]; acute, duration: 96 hours, mortality)?
**A.** The LC50 was 470 µg/mL.

**Q.** What about the NOEC ([10]; chronic/long-term, duration: 90 days, growth) of the same molecule?
**A.** Its NOEC is 9.2 mg/L.
